Reference: PMC7091493 (Journal of medicinal chemistry, 2019)

What was measured:
Format in all cases: biochemical
human i-20S β5i = human i-20S β5i (Homo sapiens, UniProt P20618+P28062); experiment: Human immunoproteasome inhibition assay; settings: for inhibitory potency against human i-20S (in words): qualitative statement, comparison as stated in the sentence
Mtb20S = Mtb20S (Mycobacterium tuberculosis, UniProt P9WHT9); settings: for inhibitory potency against Mtb20S (in words): qualitative statement, comparison as stated in the sentence
Mtb20S, sequence (P9WHT9 58-291): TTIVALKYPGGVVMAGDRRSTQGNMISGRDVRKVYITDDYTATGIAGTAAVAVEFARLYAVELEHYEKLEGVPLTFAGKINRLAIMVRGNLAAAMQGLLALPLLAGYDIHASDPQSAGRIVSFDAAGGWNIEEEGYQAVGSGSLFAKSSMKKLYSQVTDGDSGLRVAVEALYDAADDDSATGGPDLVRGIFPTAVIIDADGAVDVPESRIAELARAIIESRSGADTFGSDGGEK

human c-20S β5c = human c-20S β5c (Homo sapiens, UniProt P20618+P28074); settings: qualitative statement; comparison as stated in the sentence

In the case of `Cc1cc(C(=O)N[C@@H](CC(=O)N2CCCC[C@@H]2C)C(=O)N[C@@H](C)C(=O)NCc2ccc(F)cc2F)no1` [A85], the “selectivity for Mtb20S over i-20S β5i” value (human i-20S β5i) was 4 fold and the “inhibitory potency against Mtb20S (in words)” value (Mtb20S) was “maintaining potency”.

With `Cc1cc(C(=O)N[C@@H](CC(=O)N2CCC[C@@H]2c2ccccc2)C(=O)N[C@@H](C)C(=O)NCc2ccc(F)cc2F)no1` [A86] the “improvement in IC50 values against Mtb20S” value (Mtb20S; relative to A85) was 2.4 fold.

`Cc1cc(C(=O)N[C@@H](CC(=O)N2CCC[C@@H]2c2ccccc2)C(=O)N[C@@H](C)C(=O)NCc2c(F)cccc2F)no1` [A119] was tested, and the “inhibitory potency against human i-20S (in words)” value (human i-20S β5i) was “reduced” and the “inhibitory potency against Mtb20S (in words)” value (Mtb20S) was “maintained”.

In the case of `COc1ccccc1CNC(=O)[C@H](C)NC(=O)[C@H](CC(=O)N1CCC[C@@H]1c1ccccc1)NC(=O)c1cc(C)on1` [A120], the “inhibitory potency against human i-20S (in words)” value (human i-20S β5i) was “reduced”, the “inhibitory potency against Mtb20S (in words)” value (Mtb20S) was “reduced” and the “inhibitory potency against human c-20S (in words)” value (human c-20S β5c) was “reduced”.

For `Cc1cc(C(=O)N[C@@H](CC(=O)N2CCCC[C@@H]2C)C(=O)N[C@@H](C)c2ncc(-c3ccccc3)[nH]2)no1` [B1], the “inhibitory potency against Mtb20S (in words)” value (Mtb20S) was “modest inhibitory activity”.

For `Cc1cc(C(=O)N[C@@H](CC(=O)N2CCC[C@@H]2c2ccccc2)C(=O)N[C@@H](C)c2ncc(-c3ccccc3F)[nH]2)no1` [B6], the “selectivity for Mtb20S over both c-20S and i-20S (in words)” value (“selectivity for Mtb20S … (in words)” for short) (Mtb20S) was “markedly selective” and the “inhibitory potency against Mtb20S (in words)” value (Mtb20S) was “highly potent”.

For `Cc1cc(C(=O)N[C@@H](CC(=O)N2CCC[C@@H]2c2ccccc2)C(=O)N[C@@H](C)c2ncc(-c3ccccc3)[nH]2)no1` [B36], the “selectivity for Mtb20S … (in words)” value (Mtb20S) was “markedly selective” and the “inhibitory potency against Mtb20S (in words)” value (Mtb20S) was “highly potent”.

With `Cc1cc(C(=O)N[C@@H](CC(=O)N2CCC[C@@H]2c2ccccc2)C(=O)N[C@@H](C)c2ncc(-c3ccc(F)cc3F)[nH]2)no1` [B37] the “selectivity for Mtb20S … (in words)” value (Mtb20S) was “markedly selective” and the “inhibitory potency against Mtb20S (in words)” value (Mtb20S) was “highly potent”.
